According to US8993634B2, “Methods and use of compounds that bind to Her2/neu receptor complex” (The Trustees Of The University Of Pennsylvania, priority 2010, dated 2015):

What was measured:
[1] = system: T6-17 cells; test: Anchorage-independent growth (soft agar colony) screening, T6-17 cells; assay type: cell-based, murine; details: p<0.05, FIG. 1
Procedure: (§1) Targeted molecules were screened in vitro for anti-tumor activity using a modified […] growth of transformed cell assay, as described in Fukazawa et al. (1995), Anal. Biochem., 10:83-90. Anchorage-independent growth capability is perhaps the best indicator of the malignant phenotype and is determined by efficiency of cells to form colonies in soft agar (Drebin, et al., 1985). All experiments were conducted in 6 cm dishes in triplicate. Agar bottom layers consisted of 3 ml 0.25% agarose/DMEM (Dulbecco's Modified Eagle Medium) supplemented with 10% FBS (Fetal Bovine Serum), 2 mM L-glutamine, and 100μ/ml Penicillin/1 μg/ml Streptomycin. About 1000-2000 cells T6-17/SK-BR-3 are layered on the top in 1 ml 0.18% agarose/DMEM, 10% FBS, 2 mM L-glutamine, and 100 u/ml Penicillin/i 1 μg/ml Streptomycin. Cultures were treated every 3 days with 0.5 ml of supplemented DMEM containing measured amounts of the Her2 inhibitors, or DMSO (dimethyl sulfoxide) alone. On the day before the colonies were counted, the samples were incubated with 1 ml of Hank's Balanced Salt Solution containing 1 mg/ml p-iodonitrotetrazolium violet (INT, Sigma) to stain colonies. The next day, colonies were counted using a 7× achromatic magnifying eyepiece (Bausch and Lomb). Triplicate cultures were counted on day 21 and will be verified by at least two different persons. […]

[2] = system: SK-BR-3 cells; test: Anchorage-independent growth (soft agar colony) screening, SK-BR-3 cells; assay type: cell-based, human; details: p<0.05, FIG. 1
Procedure: as §1

CC(C)(C#Cc1cc(C(F)(F)F)cc(C(F)(F)F)c1)NC(=S)Nc1cccc(F)c1 [S22—04]
cellular growth in culture (colonies in soft agar) [1]: reduced cellular growth in culture | cellular growth in culture (colonies in soft agar) [2]: reduced cellular growth in culture
